Counter-ions that a name gives are not always drawn.
Assay: ICH-compliant stability study of ONC206-HCl Drug Substance (appearance, XRPD form, HPLC assay, purity/impurities, water content, particle size, microbial)
Assay type: physicochemical
Design: key to Each unidentified impurity (NMT 0.5% area) / Appearance (White to off-white solid) / Polymorphic form (XRPD) (Consistent with form 2 reference diffractogram): C = Conforms; A = Absence
Method: The purpose of the ICH-compliant stability study was to evaluate the performance to specifications of ONC206-HCl Drug Substance under specified container closure configuration, storage conditions, and intervals.
The study was performed according to ICH Q1A(R2) and QlE Guidance documents. […]
The Container Closure Systems were: • Primary container: LDPE bag, 4×8 inches (Source: Nexus—64378); bag closure PE 180 nm (Source: Entourage), • Secondary container: LDPE bag, 4×8 inches (Source: Nexus—64378); bag closure PE 180 nm (Source: Entourage), • Tertiary container: Heat-sealed foil bag, 15×30 (Source: SERCALIA S.L.—10234), and • Outer container: Plastic drum, 6 L (Source: Curtec, HDPE ref 54021) or Plastic drum, 3.6 L (Source: Curtec).

[1] = 30 ± 2° C./65% ± 5% RH intermediate conditions, 9 months
[2] = 30 ± 2° C./65% ± 5% RH intermediate conditions, 12 months
[3] = 40 ± 2° C./75% ± 5% RH accelerated conditions, 0 months
[4] = 40 ± 2° C./75% ± 5% RH accelerated conditions, 3 months
[5] = 40 ± 2° C./75% ± 5% RH accelerated conditions, 6 months
[6] = at all conditions, over the course of the study

## O=C1C2=C(CCN(Cc3ccccc3)C2)N2CCN=C2N1Cc1ccc(F)cc1F [ONC206-HCl, 7-benzyl-4-(2,4-difluorobenzyl)-2,4,6,7,8,9-hexahydroimidazo[1,2-a]pyrido[3,4-e]pyrimidin-5(1H)-one]
[1]
  Particle Size (Malvern) D10 (Report result μm): 30.5 μm
  Particle Size (Malvern) D50 (Report result μm): 93.2 μm
  Particle Size (Malvern) D90 (Report result μm): 197.0 μm
  Polymorphic form (XRPD) (Consistent with form 2 reference diffractogram): C
  Purity by HPLC (NLT 98.0% area): 100.0 % area
  Total impurities (NMT 2.0% area): 0.00 % area
  Water Content by Kf (Report result % w/w): 9.3 % w/w
[2]
  Appearance (White to off-white solid): C
  Assay by HPLC-UV (Anhydrous & Solvent Free basis) 97.0-103.0% w/w: 100.0 % w/w
  Each unidentified impurity (NMT 0.5% area): C
  Particle Size (Malvern) D10 (Report result μm): 29.7 μm
  Particle Size (Malvern) D50 (Report result μm): 93.7 μm
  Particle Size (Malvern) D90 (Report result μm): 203.0 μm
  Polymorphic form (XRPD) (Consistent with form 2 reference diffractogram): C
  Purity by HPLC (NLT 98.0% area): 100.0 % area
  Total impurities (NMT 2.0% area): 0.00 % area
  Water Content by Kf (Report result % w/w): 9.3 % w/w
40° C. (Table 40), 75% RH accelerated conditions
  period over which stability is confirmed: 6 months
[3]
  Appearance (White to off-white solid): C
  Assay by HPLC-UV (Anhydrous & Solvent Free basis) 97.0-103.0% w/w: 101.6 % w/w
  Each unidentified impurity (NMT 0.5% area): C
  Particle Size (Malvern) D10 (Report result μm): 28.2 μm
  Particle Size (Malvern) D50 (Report result μm): 91.4 μm
  Particle Size (Malvern) D90 (Report result μm): 201.3 μm
  Polymorphic form (XRPD) (Consistent with form 2 reference diffractogram): C
  Purity by HPLC (NLT 98.0% area): 100.0 % area
  Total impurities (NMT 2.0% area): 0.00 % area
  Water Content by Kf (Report result % w/w): 9.3 % w/w
[4]
  Appearance (White to off-white solid): C
  Assay by HPLC-UV (Anhydrous & Solvent Free basis) 97.0-103.0% w/w: 100.1 % w/w
  Each unidentified impurity (NMT 0.5% area): C
  Particle Size (Malvern) D10 (Report result μm): 28.1 μm
  Particle Size (Malvern) D50 (Report result μm): 91.5 μm
  Particle Size (Malvern) D90 (Report result μm): 199.0 μm
  Polymorphic form (XRPD) (Consistent with form 2 reference diffractogram): C
  Purity by HPLC (NLT 98.0% area): 100.0 % area
  Total impurities (NMT 2.0% area): 0.00 % area
  Water Content by Kf (Report result % w/w): 9.5 % w/w
40 ± 2° C./75% ± 5% RH accelerated conditions, 3 months, peak RRT 1.30
  Each unidentified impurity (Report RRT and % area for peaks ≥0.10% area): 0.10% aire
[5]
  Appearance (White to off-white solid): C
  Assay by HPLC-UV (Anhydrous & Solvent Free basis) 97.0-103.0% w/w: 100.2 % w/w
  Each unidentified impurity (NMT 0.5% area): C
  Particle Size (Malvern) D10 (Report result μm): 29.2 μm
  Particle Size (Malvern) D50 (Report result μm): 92.6 μm
  Particle Size (Malvern) D90 (Report result μm): 201.0 μm
  Polymorphic form (XRPD) (Consistent with form 2 reference diffractogram): C
  Purity by HPLC (NLT 98.0% area): 100.0 % area
  Total impurities (NMT 2.0% area): 0.00 % area
  Water Content by Kf (Report result % w/w): 9.5 % w/w
[6]
  Particle Size (D10, D50 and D90): no significant evolution
  Polymorphic form (XRPD): no significant change
  Purity and total impurities: no significant evolution
  Water Content: no significant evolution
  appearance: no significant change
Over the course of the study
  Assay HPLC: no significant evolution
  microbial results: in specifications
−20° C. (Table 41)
  period over which stability is confirmed: 12 months
−20° C., 0 months
  Appearance (White to off-white solid): C
  Assay by HPLC-UV (Anhydrous & Solvent Free basis) 97.0-103.0% w/w: 101.6 % w/w
  Each unidentified impurity (NMT 0.5% area): C
  Particle Size (Malvern) D50 (Report result μm): 91.4 μm
  Particle Size (Malvern) D90 (Report result μm): 201.3 μm
  Particle Size (Malvern) Dl0 (Report result μm): 28.2 μm
  Polymorphic form (XRPD) (Consistent with form 2 reference diffractogram): C
  Purity by HPLC (NLT 98.0% area): 100.0 % area
  Total impurities (NMT 2.0% area): 0.00 % area
  Water Content by Kf (Report result % w/w): 9.3 % w/w
−20° C., 1 months
  Appearance (White to off-white solid): C
  Assay by HPLC-UV (Anhydrous & Solvent Free basis) 97.0-103.0% w/w: 101.5 % w/w
  Each unidentified impurity (NMT 0.5% area): C
  Particle Size (Malvern) D50 (Report result μm): 89.5 μm
  Particle Size (Malvern) D90 (Report result μm): 193.0 μm
  Particle Size (Malvern) Dl0 (Report result μm): 27.5 μm
  Polymorphic form (XRPD) (Consistent with form 2 reference diffractogram): C
  Purity by HPLC (NLT 98.0% area): 100.0 % area
  Total impurities (NMT 2.0% area): 0.00 % area
  Water Content by Kf (Report result % w/w): 9.3 % w/w
−20° C., 2 months
  Appearance (White to off-white solid): C
  Assay by HPLC-UV (Anhydrous & Solvent Free basis) 97.0-103.0% w/w: 100.2 % w/w
  Each unidentified impurity (NMT 0.5% area): C
  Particle Size (Malvern) D50 (Report result μm): 90.6 μm
  Particle Size (Malvern) D90 (Report result μm): 189.0 μm
  Particle Size (Malvern) Dl0 (Report result μm): 28.8 μm
  Polymorphic form (XRPD) (Consistent with form 2 reference diffractogram): C
  Purity by HPLC (NLT 98.0% area): 100.0 % area
  Total impurities (NMT 2.0% area): 0.00 % area
  Water Content by Kf (Report result % w/w): 9.4 % w/w
−20° C., 3 months
  Appearance (White to off-white solid): C
  Assay by HPLC-UV (Anhydrous & Solvent Free basis) 97.0-103.0% w/w: 100.0 % w/w
  Each unidentified impurity (NMT 0.5% area): C
  Particle Size (Malvern) D50 (Report result μm): 89.4 μm
  Particle Size (Malvern) D90 (Report result μm): 195.0 μm
  Particle Size (Malvern) Dl0 (Report result μm): 27.2 μm
  Polymorphic form (XRPD) (Consistent with form 2 reference diffractogram): C
  Purity by HPLC (NLT 98.0% area): 100.0 % area
  Total impurities (NMT 2.0% area): 0.00 % area
  Water Content by Kf (Report result % w/w): 9.5 % w/w
−20° C., 6 months
  Appearance (White to off-white solid): C
  Assay by HPLC-UV (Anhydrous & Solvent Free basis) 97.0-103.0% w/w: 100.1 % w/w
  Each unidentified impurity (NMT 0.5% area): C
  Particle Size (Malvern) D50 (Report result μm): 89.0 μm
  Particle Size (Malvern) D90 (Report result μm): 192.0 μm
  Particle Size (Malvern) Dl0 (Report result μm): 27.5 μm
  Polymorphic form (XRPD) (Consistent with form 2 reference diffractogram): C
  Purity by HPLC (NLT 98.0% area): 100.0 % area
  Total impurities (NMT 2.0% area): 0.00 % area
  Water Content by Kf (Report result % w/w): 9.3 % w/w
−20° C., 9 months
  Appearance (White to off-white solid): C
  Assay by HPLC-UV (Anhydrous & Solvent Free basis) 97.0-103.0% w/w: 100.4 % w/w
  Each unidentified impurity (NMT 0.5% area): C
  Particle Size (Malvern) D50 (Report result μm): 91.8 μm
  Particle Size (Malvern) D90 (Report result μm): 196.0 μm
  Particle Size (Malvern) Dl0 (Report result μm): 29.5 μm
  Polymorphic form (XRPD) (Consistent with form 2 reference diffractogram): C
  Purity by HPLC (NLT 98.0% area): 100.0 % area
  Total impurities (NMT 2.0% area): 0.00 % area
  Water Content by Kf (Report result % w/w): 9.3 % w/w
−20° C., 12 months
  Appearance (White to off-white solid): C
  Assay by HPLC-UV (Anhydrous & Solvent Free basis) 97.0-103.0% w/w: 99.9 % w/w
  Each unidentified impurity (NMT 0.5% area): C
  Particle Size (Malvern) D50 (Report result μm): 92.2 μm
  Particle Size (Malvern) D90 (Report result μm): 201.0 μm
  Particle Size (Malvern) Dl0 (Report result μm): 28.7 μm
  Polymorphic form (XRPD) (Consistent with form 2 reference diffractogram): C
  Purity by HPLC (NLT 98.0% area): 100.0 % area
  Total impurities (NMT 2.0% area): 0.00 % area
  Water Content by Kf (Report result % w/w): 9.2 % w/w
